Measured values from patent US7790894B2, “Mycobacterial inhibitors” (Janssen Pharmaceutica NV, priority 2004, dated 2010).

How the values were obtained:
[1] = system: M. Smegmatis ATCC607; test: In-vitro anti-bacterial activity against strain M. smegmatis ATCC607 (growth inhibition, Alamar Blue fluorescence); type: cell-based; conditions: strain ATCC607, 48 hours at 37° C.; for IC50: Mycolicibacterium smegmatis, ATCC607, 48 h, read-out: M. smegmatis pIC50 (converted)
Protocol: D.2. In-Vitro Method for Testing Compounds for Anti-Bacterial Activity Against Strain M. Smegmatis ATCC607 Flat-bottom, sterile 96-well plastic microtiter plates were filled with 180 μl of sterile deionized water, supplemented with 0.25% BSA. […] Serial five-fold dilutions (45 μl in 180 μl) were made directly in the microtiter plates from column 2 to 11 using a customised robot system (Zymark Corp. Hopkinton, Mass.). Pipette tips were changed after every 3 dilutions to minimize pipetting errors with high hydrophobic compounds. […] Approximately 250 CFU per well of bacteria inoculum, in a volume of 100 μl in 2.8× Mueller-Hinton broth medium, was added to the rows […]. The same volume of broth medium without inoculum was added to column 12 in row A to H. The cultures were incubated at 37° C. for 48 hours in a humidified 5% CO2 atmosphere (incubator with open air valve and continuous ventilation). At the end of incubation, two days after inoculation, the bacterial growth was quantitated fluorometrically. Therefore Alamar Blue (10×) was added to all wells in a volume of 20 μl and plates were incubated for another 2 hours at […] The fluorescence was read in a computer-controlled fluorometer (Cytofluor, Biosearch) at an excitation wavelength of 530 nm and an emission wavelength of 590 nm (gain 30). The % growth inhibition achieved by the compounds was calculated according to standard methods. The pIC50 was defined as the 50% inhibitory concentration for bacterial growth.

[2] = system: Mycobacterium tuberculosis (strain H37RV); test: In-vitro testing against M. tuberculosis (growth inhibition, Resazurin fluorescence); type: cell-based; conditions: 168 h, 7 days at 37° C., bacterial growth, read-out: M. tuberculosis pIC50 (converted)

| Structure (SMILES) | melting point | IC50 [1] | IC50 [2] | M. smegmatis pIC50 [1] |
| --- | --- | --- | --- | --- |
| CN(C)CC[C@](O)(c1cccc2ccccc12)C(Cc1ccccc1)c1ccc2cc(Br)ccc2n1 (stereo partly shown) [Compound 2] | 143 °C | 316 nM |  |  |
| CCc1cc2cc(C(c3ccccc3)C(O)(CCN(C)C)c3cc(F)cc(F)c3)ccc2nc1Cl (single isomer, unassigned) [Compound 15] |  | 398 nM | 10 µM |  |
| CN(C)CC[C@](O)(c1cccc(F)c1)C(Cc1ccccc1)c1ccc2cc(Br)ccc2n1 (stereo partly shown) [Compound 1] | 136 °C | 631 nM |  |  |
| CN(C)CC[C@@](O)(c1cccc(F)c1)C(c1ccccc1)c1ccc2cc(Br)ccc2n1 (stereo partly shown) [Compound 6] | 134 °C | 12600 nM |  |  |
| CCc1cc2ccc([C@H](c3ccccc3)[C@@](O)(CCN(C)C)c3cc(F)cc(F)c3)cc2nc1Cl [Compound 10] |  | 1260 nM | 7.94 µM |  |
| CCc1cc2ccc([C@H](c3ccccc3)[C@@](O)(CCN(C)C)c3cc(F)cc(F)c3)cc2nc1Cl [Compound 9] |  |  |  | 5.8 |
| CN(C)CC[C@@](O)(c1cccc2ccccc12)C(Cc1ccccc1)c1ccc2cc(Br)ccc2n1 (stereo partly shown) [Compound 3] | 69 °C | 2000 nM |  |  |
| CN(C)CC[C@](O)(c1cc(F)cc(F)c1)[C@@H](c1ccccc1)c1cc(Br)cc2c(-c3ccccc3)cc(Cl)nc12 [Compound 11] | 220 °C | 2000 nM |  |  |
| CCc1cc2ccc([C@H](c3ccccc3)[C@@](O)(CCN(C)C)c3cccc4ccccc34)cc2nc1Cl [Compound 8] |  | 1580 nM |  |  |
